# Experiments:
# Assay in all cases: relative viability (nuclei count vs DMSO), 5 days (fraction); higher = more cells survive
# [1] = compound: C1=CC=C(C(=C1)C2=CC=C(C=C2)C3=CSC4=C3C(=C(C(=O)N4)C#N)O)O + CCNC(=O)c1noc(-c2cc(C(C)C)c(O)cc2O)c1-c1ccc(CN2CCOCC2)cc1 [Luminespib] (partner 0.01 µM)
# In short: (§1)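 Relative viability is defined as nuclei in treated wells over nuclei in vehicle wells. Duplicate plates were run and medians reported. Lung cancer cell lines in 1536-well plates were dosed by pin tool one day after seeding, with one drug or with a fixed anchor-drug dose plus five library-drug doses (not always all listed) in √10 steps, and nuclei were counted after 5 days.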
# [2] = compound: C1=CC=C(C(=C1)C2=CC=C(C=C2)C3=CSC4=C3C(=C(C(=O)N4)C#N)O)O + C[C@@H](Oc1cc(-c2cnn(C3CCNCC3)c2)cnc1N)c1c(Cl)ccc(F)c1Cl [Crizotinib] (partner 1 µM)
# In short: as §1
# [3] = compound: C1=CC=C(C(=C1)C2=CC=C(C=C2)C3=CSC4=C3C(=C(C(=O)N4)C#N)O)O + NC(=O)Nc1cc(-c2cccc(F)c2)sc1C(=O)N[C@H]1CCCNC1 [AZD7762] (partner 0.2 µM)
# In short: as §1
# TGX 221 + Lapatinib = compound: CC1=CN2C(=O)C=C(N=C2C(=C1)C(C)NC3=CC=CC=C3)N4CCOCC4 [TGX 221] + CS(=O)(=O)CCNCc1ccc(-c2ccc3ncnc(Nc4ccc(OCc5cccc(F)c5)c(Cl)c4)c3c2)o1 [Lapatinib] (partner 2 µM)
# In short: as §1
Cell Line,relative viability ([1]; first compound 0.08 µM),relative viability ([1]; first compound 0.253 µM),relative viability ([1]; first compound 0.8 µM),relative viability ([1]; first compound 2.53 µM),relative viability ([1]; first compound 8 µM),relative viability ([2]; first compound 0.08 µM),relative viability ([2]; first compound 0.253 µM),relative viability ([2]; first compound 0.8 µM),relative viability ([2]; first compound 2.53 µM),relative viability ([2]; first compound 8 µM),relative viability ([3]; first compound 0.08 µM),relative viability ([3]; first compound 0.253 µM),relative viability ([3]; first compound 0.8 µM),relative viability ([3]; first compound 2.53 µM),relative viability ([3]; first compound 8 µM),relative viability (TGX 221 + Lapatinib; first compound 0.08 µM),relative viability (TGX 221 + Lapatinib; first compound 0.253 µM),relative viability (TGX 221 + Lapatinib; first compound 0.8 µM),relative viability (TGX 221 + Lapatinib; first compound 2.53 µM),relative viability (TGX 221 + Lapatinib; first compound 8 µM)
A-427,0.735,1.37,0.916,1.06,0.927,0.905,1.08,0.998,1.05,0.988,0.672,0.81,0.746,0.776,0.716,0.998,0.992,1.01,0.991,1.05
NCI-H1975,0.174,0.248,0.161,0.253,0.161,0.852,1.03,1.01,1.05,0.721,0.665,0.746,0.606,0.736,0.633,0.92,0.855,0.861,0.796,0.791
HCC-827,0.639,0.845,0.573,0.7,0.43,1.02,0.959,0.965,1.03,0.926,0.233,0.192,0.199,0.231,0.176,0.187,0.205,0.2,0.191,0.205
UMC-11,0.764,1.04,1.03,1.06,0.839,0.547,0.506,0.574,0.487,0.622,–,–,–,–,–,0.879,0.854,0.901,0.909,1.18
NCI-H3122,0.106,0.0689,0.0946,0.105,0.0854,0.317,0.34,0.248,0.271,0.302,0.985,0.987,0.995,1.03,0.917,1.01,0.994,1.02,1.01,0.985
LXF-289,0.764,0.651,0.8,0.73,0.632,0.779,0.852,0.789,0.845,0.826,1.06,1.09,1.15,1.2,0.925,0.933,0.889,0.955,0.904,0.885
NCI-H647,0.183,0.0923,0.19,0.245,0.209,0.79,1.24,1.23,1.14,0.924,0.294,0.337,0.276,0.39,0.301,0.95,0.869,0.955,0.746,0.61
COR-L23,0.524,0.745,0.714,0.773,0.52,0.577,0.89,0.772,0.644,0.533,–,–,–,–,–,0.886,0.923,1.02,1.11,0.938
NCI-H1563,0.525,0.613,0.551,0.587,0.517,0.736,0.862,0.884,0.904,0.858,–,–,–,–,–,0.922,0.871,0.791,0.851,0.796
NCI-H1793,0.19,0.21,0.42,0.225,0.166,–,–,–,–,–,0.401,0.411,0.473,0.53,0.432,0.633,0.624,0.721,0.58,0.456
HCC-78,–,–,–,–,–,0.374,0.423,0.443,0.343,0.3,0.682,0.744,0.638,0.502,0.551,0.702,0.699,–,0.277,0.794
NCI-H2009,0.962,1.02,1.11,1.03,1.02,0.916,1.03,1.01,1.04,0.955,–,–,–,–,–,0.961,0.927,0.894,0.882,0.772
NCI-H522,–,1.28,1.2,1.27,0.937,–,–,–,–,–,0.802,0.871,0.869,0.898,0.772,–,–,–,–,–
NCI-H1623,0.454,0.591,0.817,0.434,0.419,–,–,–,–,–,–,–,–,–,–,–,–,–,–,–
NCI-H520,0.261,0.225,0.218,0.246,0.21,0.517,1.03,0.78,0.981,0.524,–,–,–,–,–,0.724,0.562,0.824,0.671,0.516
LCLC-103H,0.87,0.98,1.06,0.929,1.06,1.09,1.17,0.967,1.18,1.02,0.737,0.731,0.803,0.728,0.743,–,–,–,–,–
NCI-H2342,0.742,0.816,0.788,0.718,0.68,–,–,–,–,–,0.432,0.536,0.446,0.474,0.358,–,–,–,–,–

# Reference: the supplement of paper PMC10307832
